Measurements published in the kinase profiling compilation of Christmann-Franck et al. (2016).

Key:
Experiment in all cases: KINOMEscan competition binding
Settings in all cases: compound 10.0 µM
CDC42BPB (human) = CDC42BPB (human) (UniProt Q9Y5S2)
KDR (human) = KDR (human) (UniProt P35968)
ALK (human) = ALK (human) (UniProt Q9UM73)
MAP4K2 (human) = MAP4K2 (human) (UniProt Q12851)
SRPK1 (human) = SRPK1 (human) (UniProt Q96SB4)
PRKACB (human) = PRKACB (human) (UniProt P22694)
EIF2AK2 (human) = EIF2AK2 (human) (UniProt P19525)
Sequence of EIF2AK2 (human) (P19525 whole entry, looked up): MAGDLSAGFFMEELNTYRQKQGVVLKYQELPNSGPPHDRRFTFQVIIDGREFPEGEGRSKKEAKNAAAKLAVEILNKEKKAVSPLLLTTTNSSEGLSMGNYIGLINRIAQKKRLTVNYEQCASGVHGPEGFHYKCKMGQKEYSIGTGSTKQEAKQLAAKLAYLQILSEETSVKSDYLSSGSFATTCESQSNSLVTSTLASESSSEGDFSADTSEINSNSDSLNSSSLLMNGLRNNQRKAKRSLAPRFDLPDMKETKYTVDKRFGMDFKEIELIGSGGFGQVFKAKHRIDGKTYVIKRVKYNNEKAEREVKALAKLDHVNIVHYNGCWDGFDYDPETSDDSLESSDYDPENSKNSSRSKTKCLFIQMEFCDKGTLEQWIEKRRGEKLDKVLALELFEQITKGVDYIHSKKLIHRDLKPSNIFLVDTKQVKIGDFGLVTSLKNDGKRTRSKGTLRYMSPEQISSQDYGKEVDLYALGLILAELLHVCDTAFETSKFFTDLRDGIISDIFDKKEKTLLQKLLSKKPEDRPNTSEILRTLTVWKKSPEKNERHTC

LCK (human) = LCK (human) (UniProt P06239)
[1] = target: JAK3 JH1 catalytic (human) (UniProt P52333)
CLK4 (human) = CLK4 (human) (UniProt Q9HAZ1)
AURKA (human) = AURKA (human) (UniProt O14965)
FGFR3 (human) = FGFR3 (human) (UniProt P22607)
ULK2 (human) = ULK2 (human) (UniProt Q8IYT8)
RIPK4 (human) = RIPK4 (human) (UniProt P57078)
PRKAA2 (human) = PRKAA2 (human) (UniProt P54646)
RPS6KA1 KD2 (human) = RPS6KA1 KD2 (human) (UniProt Q15418)
FLT3 (human) = FLT3 (human) (UniProt P36888)
Sequence of FLT3 (human) (P36888 whole entry, looked up): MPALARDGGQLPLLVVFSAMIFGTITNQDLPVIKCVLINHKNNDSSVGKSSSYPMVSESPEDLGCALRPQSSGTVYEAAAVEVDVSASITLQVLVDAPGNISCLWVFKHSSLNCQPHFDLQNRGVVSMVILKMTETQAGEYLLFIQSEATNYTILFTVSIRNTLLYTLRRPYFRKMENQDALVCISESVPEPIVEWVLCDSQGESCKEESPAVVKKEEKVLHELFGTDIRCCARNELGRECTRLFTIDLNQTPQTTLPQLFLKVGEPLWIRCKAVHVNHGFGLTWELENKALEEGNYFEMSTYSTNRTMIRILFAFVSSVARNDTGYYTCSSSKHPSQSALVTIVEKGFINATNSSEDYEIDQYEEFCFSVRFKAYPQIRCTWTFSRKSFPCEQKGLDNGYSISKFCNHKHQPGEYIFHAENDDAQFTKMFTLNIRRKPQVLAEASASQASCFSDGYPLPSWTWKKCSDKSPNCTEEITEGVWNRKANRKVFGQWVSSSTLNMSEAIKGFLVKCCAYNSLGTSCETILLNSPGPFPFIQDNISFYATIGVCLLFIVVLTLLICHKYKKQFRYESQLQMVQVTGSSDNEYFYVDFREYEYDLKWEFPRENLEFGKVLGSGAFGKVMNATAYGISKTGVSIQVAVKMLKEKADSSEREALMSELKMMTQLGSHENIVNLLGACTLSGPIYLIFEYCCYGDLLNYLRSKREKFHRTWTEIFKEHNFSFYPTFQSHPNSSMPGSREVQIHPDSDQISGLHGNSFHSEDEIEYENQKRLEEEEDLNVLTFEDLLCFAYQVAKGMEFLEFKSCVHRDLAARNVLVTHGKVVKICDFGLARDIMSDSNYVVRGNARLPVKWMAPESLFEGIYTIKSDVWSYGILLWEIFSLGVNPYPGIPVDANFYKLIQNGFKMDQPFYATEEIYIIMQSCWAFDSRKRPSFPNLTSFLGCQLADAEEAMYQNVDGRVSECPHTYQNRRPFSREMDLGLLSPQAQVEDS

SIK2 (human) = SIK2 (human) (UniProt Q9H0K1)
CDC42BPG (human) = CDC42BPG (human) (UniProt Q6DT37)
Sequence of CDC42BPG (human) (Q6DT37 whole entry, looked up): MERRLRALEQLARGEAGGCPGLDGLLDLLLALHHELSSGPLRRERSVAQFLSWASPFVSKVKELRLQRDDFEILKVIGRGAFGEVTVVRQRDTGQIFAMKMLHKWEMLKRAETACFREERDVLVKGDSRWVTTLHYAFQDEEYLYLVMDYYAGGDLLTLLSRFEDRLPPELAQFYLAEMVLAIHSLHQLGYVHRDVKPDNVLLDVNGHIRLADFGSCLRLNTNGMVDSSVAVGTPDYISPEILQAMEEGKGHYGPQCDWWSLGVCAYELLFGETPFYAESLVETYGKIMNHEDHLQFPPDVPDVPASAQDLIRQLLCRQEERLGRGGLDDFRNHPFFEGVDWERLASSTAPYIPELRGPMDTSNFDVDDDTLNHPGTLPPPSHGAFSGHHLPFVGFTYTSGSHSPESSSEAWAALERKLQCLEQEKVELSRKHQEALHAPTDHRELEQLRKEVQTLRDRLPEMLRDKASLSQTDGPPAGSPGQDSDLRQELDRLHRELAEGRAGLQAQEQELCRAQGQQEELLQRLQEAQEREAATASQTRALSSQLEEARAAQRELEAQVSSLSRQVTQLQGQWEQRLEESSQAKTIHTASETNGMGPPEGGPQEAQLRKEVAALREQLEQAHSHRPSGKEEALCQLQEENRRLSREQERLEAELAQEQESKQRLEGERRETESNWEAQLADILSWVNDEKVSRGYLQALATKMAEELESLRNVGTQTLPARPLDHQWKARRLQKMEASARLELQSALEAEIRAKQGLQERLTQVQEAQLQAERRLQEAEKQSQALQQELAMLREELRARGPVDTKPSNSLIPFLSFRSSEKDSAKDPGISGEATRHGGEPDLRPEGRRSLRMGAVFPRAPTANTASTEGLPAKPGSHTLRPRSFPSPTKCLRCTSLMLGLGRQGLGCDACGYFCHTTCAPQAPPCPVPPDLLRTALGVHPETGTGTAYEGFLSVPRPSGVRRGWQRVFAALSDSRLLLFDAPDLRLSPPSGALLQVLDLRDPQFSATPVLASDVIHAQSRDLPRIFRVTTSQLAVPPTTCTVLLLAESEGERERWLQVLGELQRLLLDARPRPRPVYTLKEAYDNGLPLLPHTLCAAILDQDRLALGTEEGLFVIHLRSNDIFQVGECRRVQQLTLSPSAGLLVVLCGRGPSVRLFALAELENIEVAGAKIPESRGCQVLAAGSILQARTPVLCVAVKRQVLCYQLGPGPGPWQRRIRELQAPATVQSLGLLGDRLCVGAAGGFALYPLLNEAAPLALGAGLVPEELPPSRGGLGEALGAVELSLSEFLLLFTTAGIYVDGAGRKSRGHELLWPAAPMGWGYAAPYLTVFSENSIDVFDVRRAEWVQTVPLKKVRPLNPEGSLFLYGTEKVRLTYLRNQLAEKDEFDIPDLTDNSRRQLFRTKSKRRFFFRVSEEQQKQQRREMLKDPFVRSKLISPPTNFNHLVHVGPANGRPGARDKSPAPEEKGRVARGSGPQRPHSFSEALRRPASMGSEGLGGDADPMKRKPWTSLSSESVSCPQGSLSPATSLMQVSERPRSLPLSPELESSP

EPHA1 (human) = EPHA1 (human) (UniProt P21709)
STK17A (human) = STK17A (human) (UniProt Q9UEE5)
CDK15 (human) = CDK15 (human) (UniProt Q96Q40)
PAK6 (human) = PAK6 (human) (UniProt Q9NQU5)
CDK5 (human) = CDK5 (human) (UniProt Q00535)
EPHB4 (human) = EPHB4 (human) (UniProt P54760)
RIPK2 (human) = RIPK2 (human) (UniProt O43353)
CAMK2B (human) = CAMK2B (human) (UniProt Q13554)
EPHA4 (human) = EPHA4 (human) (UniProt P54764)
MAP3K7 (human) = MAP3K7 (human) (UniProt O43318)
CSNK1A1L (human) = CSNK1A1L (human) (UniProt Q8N752)
BRSK1 (human) = BRSK1 (human) (UniProt Q8TDC3)
MAP3K12 (human) = MAP3K12 (human) (UniProt Q12852)
CAMKK1 (human) = CAMKK1 (human) (UniProt Q8N5S9)
Sequence of CAMKK1 (human) (Q8N5S9 whole entry, looked up): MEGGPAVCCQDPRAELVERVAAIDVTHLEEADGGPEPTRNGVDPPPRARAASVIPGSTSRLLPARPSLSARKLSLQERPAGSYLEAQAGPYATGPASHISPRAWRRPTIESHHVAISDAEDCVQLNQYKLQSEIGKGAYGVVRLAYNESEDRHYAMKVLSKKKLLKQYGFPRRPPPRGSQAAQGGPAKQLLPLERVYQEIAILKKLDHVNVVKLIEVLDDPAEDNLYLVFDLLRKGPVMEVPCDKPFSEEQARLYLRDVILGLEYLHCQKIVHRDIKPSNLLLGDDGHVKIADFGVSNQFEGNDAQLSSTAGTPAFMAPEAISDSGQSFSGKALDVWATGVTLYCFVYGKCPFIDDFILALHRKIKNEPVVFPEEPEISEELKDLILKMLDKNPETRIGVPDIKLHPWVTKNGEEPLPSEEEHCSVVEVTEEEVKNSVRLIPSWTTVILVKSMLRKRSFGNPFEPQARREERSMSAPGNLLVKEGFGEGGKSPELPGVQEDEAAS

CAMK2G (human) = CAMK2G (human) (UniProt Q13555)
PIK3CD (human) = PIK3CD (human) (UniProt O00329)
[2] = target: TYK2 JH1 catalytic (human) (UniProt P29597)
ACVR1B (human) = ACVR1B (human) (UniProt P36896)
CSF1R (human) = CSF1R (human) (UniProt P07333)
PLK4 (human) = PLK4 (human) (UniProt O00444)
[3] = target: TYK2 JH2 pseudokinase (human) (UniProt P29597)

Sequence of KDR (human) (P35968 whole entry, looked up): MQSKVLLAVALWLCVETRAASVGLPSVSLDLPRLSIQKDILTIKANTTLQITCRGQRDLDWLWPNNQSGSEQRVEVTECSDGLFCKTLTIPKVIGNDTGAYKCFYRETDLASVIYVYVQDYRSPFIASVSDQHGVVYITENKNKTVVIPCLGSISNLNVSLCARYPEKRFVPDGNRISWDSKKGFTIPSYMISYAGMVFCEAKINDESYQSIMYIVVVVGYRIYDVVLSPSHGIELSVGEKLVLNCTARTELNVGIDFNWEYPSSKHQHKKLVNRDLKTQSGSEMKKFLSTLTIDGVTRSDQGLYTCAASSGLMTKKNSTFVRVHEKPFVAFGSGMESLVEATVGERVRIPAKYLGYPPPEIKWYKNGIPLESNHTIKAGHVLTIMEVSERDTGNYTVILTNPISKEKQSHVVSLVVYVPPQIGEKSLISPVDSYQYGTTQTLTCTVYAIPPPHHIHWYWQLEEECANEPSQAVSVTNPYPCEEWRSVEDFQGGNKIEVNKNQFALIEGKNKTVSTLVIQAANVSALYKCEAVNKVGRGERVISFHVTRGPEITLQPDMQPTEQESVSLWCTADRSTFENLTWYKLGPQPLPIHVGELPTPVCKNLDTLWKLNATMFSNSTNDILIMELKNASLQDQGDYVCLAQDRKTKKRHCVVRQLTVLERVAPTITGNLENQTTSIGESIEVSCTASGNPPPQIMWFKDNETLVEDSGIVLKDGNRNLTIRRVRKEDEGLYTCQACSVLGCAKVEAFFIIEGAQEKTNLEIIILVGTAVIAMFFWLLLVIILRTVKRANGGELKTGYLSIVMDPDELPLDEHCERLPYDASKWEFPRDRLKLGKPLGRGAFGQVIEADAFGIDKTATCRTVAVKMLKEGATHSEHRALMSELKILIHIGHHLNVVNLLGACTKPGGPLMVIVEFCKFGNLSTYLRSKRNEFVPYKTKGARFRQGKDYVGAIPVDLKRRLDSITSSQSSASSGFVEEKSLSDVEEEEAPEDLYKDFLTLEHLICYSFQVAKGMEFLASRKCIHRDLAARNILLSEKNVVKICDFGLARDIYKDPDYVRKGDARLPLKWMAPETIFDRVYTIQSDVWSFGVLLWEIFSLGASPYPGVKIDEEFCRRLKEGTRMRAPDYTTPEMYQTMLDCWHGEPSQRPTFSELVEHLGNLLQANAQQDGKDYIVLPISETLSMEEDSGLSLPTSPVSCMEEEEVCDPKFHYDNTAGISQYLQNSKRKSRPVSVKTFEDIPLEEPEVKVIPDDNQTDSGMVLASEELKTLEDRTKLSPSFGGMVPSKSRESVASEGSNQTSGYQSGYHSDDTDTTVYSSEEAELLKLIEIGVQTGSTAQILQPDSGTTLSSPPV

Compound	kinase still bound, per cent of control (CDC42BPB (human)) [%]	kinase still bound, per cent of control (KDR (human)) [%]	kinase still bound, per cent of control (ALK (human)) [%]	kinase still bound, per cent of control (MAP4K2 (human)) [%]	kinase still bound, per cent of control (SRPK1 (human)) [%]	kinase still bound, per cent of control (PRKACB (human)) [%]	kinase still bound, per cent of control (EIF2AK2 (human)) [%]	kinase still bound, per cent of control (LCK (human)) [%]	kinase still bound, per cent of control [1] [%]	kinase still bound, per cent of control (CLK4 (human)) [%]	kinase still bound, per cent of control (AURKA (human)) [%]	kinase still bound, per cent of control (FGFR3 (human)) [%]	kinase still bound, per cent of control (ULK2 (human)) [%]	kinase still bound, per cent of control (RIPK4 (human)) [%]	kinase still bound, per cent of control (PRKAA2 (human)) [%]	kinase still bound, per cent of control (RPS6KA1 KD2 (human)) [%]	kinase still bound, per cent of control (FLT3 (human)) [%]	kinase still bound, per cent of control (SIK2 (human)) [%]	kinase still bound, per cent of control (CDC42BPG (human)) [%]	kinase still bound, per cent of control (EPHA1 (human)) [%]	other results
O=C1Nc2ccc(I)cc2/C1=C/c1cc(Br)c(O)c(Br)c1	100	100	100	68	40	100	75	38	14	36	65	84	90	76	100	12	3.6	84	91	98	kinase still bound, per cent of control (STK17A (human)): 2.5%; kinase still bound, per cent of control (CDK15 (human)): 100%; kinase still bound, per cent of control (PAK6 (human)): 73%; kinase still bound, per cent of control (CDK5 (human)): 83%; kinase still bound, per cent of control (EPHB4 (human)): 100%; kinase still bound, per cent of control (RIPK2 (human)): 38%; kinase still bound, per cent of control (CAMK2B (human)): 17%; kinase still bound, per cent of control (EPHA4 (human)): 100%; kinase still bound, per cent of control (MAP3K7 (human)): 67%; kinase still bound, per cent of control (CSNK1A1L (human)): 100%; kinase still bound, per cent of control (BRSK1 (human)): 85%; kinase still bound, per cent of control (MAP3K12 (human)): 80%; kinase still bound, per cent of control (CAMKK1 (human)): 7.6%; kinase still bound, per cent of control (CAMK2G (human)): 40%; kinase still bound, per cent of control (PIK3CD (human)): 81%; kinase still bound, per cent of control [2]: 8.2%; kinase still bound, per cent of control (ACVR1B (human)): 33%; kinase still bound, per cent of control (CSF1R (human)): 71%; kinase still bound, per cent of control (PLK4 (human)): 26%; kinase still bound, per cent of control [3]: 100%
CN(C)C/C=C/C(=O)Nc1cccc(Nc2ncc3c(n2)N(C)c2ccccc2C(=O)N3C)c1	100	90	51	13	23	100	75	1.2	1.2	100	0.65	12	0.2	1	1.4	39	73	9	100	55	kinase still bound, per cent of control (STK17A (human)): 97%; kinase still bound, per cent of control (CDK15 (human)): 84%; kinase still bound, per cent of control (PAK6 (human)): 66%; kinase still bound, per cent of control (CDK5 (human)): 100%; kinase still bound, per cent of control (EPHB4 (human)): 83%; kinase still bound, per cent of control (RIPK2 (human)): 18%; kinase still bound, per cent of control (CAMK2B (human)): 40%; kinase still bound, per cent of control (EPHA4 (human)): 79%; kinase still bound, per cent of control (MAP3K7 (human)): 6.2%; kinase still bound, per cent of control (CSNK1A1L (human)): 100%; kinase still bound, per cent of control (BRSK1 (human)): 14%; kinase still bound, per cent of control (MAP3K12 (human)): 38%; kinase still bound, per cent of control (CAMKK1 (human)): 39%; kinase still bound, per cent of control (CAMK2G (human)): 46%; kinase still bound, per cent of control (PIK3CD (human)): 2.2%; kinase still bound, per cent of control [2]: 5%; kinase still bound, per cent of control (ACVR1B (human)): 53%; kinase still bound, per cent of control (CSF1R (human)): 0.1%; kinase still bound, per cent of control (PLK4 (human)): 0%; kinase still bound, per cent of control [3]: 18%
COc1cc(C(=O)NC2CCN(C)CC2)ccc1Nc1ncc2c(n1)N(C1CCCC1)C(C)CC(=O)N2C (stereo not given)	100	100	6.2	100	100	100	100	100	100	100	100	100	100	100	100	22	100	100	100	100	kinase still bound, per cent of control (STK17A (human)): 100%; kinase still bound, per cent of control (CDK15 (human)): 100%; kinase still bound, per cent of control (PAK6 (human)): 100%; kinase still bound, per cent of control (CDK5 (human)): 100%; kinase still bound, per cent of control (EPHB4 (human)): 100%; kinase still bound, per cent of control (RIPK2 (human)): 100%; kinase still bound, per cent of control (CAMK2B (human)): 100%; kinase still bound, per cent of control (EPHA4 (human)): 100%; kinase still bound, per cent of control (MAP3K7 (human)): 100%; kinase still bound, per cent of control (CSNK1A1L (human)): 100%; kinase still bound, per cent of control (BRSK1 (human)): 100%; kinase still bound, per cent of control (MAP3K12 (human)): 100%; kinase still bound, per cent of control (CAMKK1 (human)): 100%; kinase still bound, per cent of control (CAMK2G (human)): 34%; kinase still bound, per cent of control (PIK3CD (human)): 100%; kinase still bound, per cent of control [2]: 100%; kinase still bound, per cent of control (ACVR1B (human)): 100%; kinase still bound, per cent of control (CSF1R (human)): 100%; kinase still bound, per cent of control (PLK4 (human)): 100%; kinase still bound, per cent of control [3]: 100%
